Source: US5100879A, “Method of topically cleansing the human body” (K.K. Ueno Seiyaku Oyo Kenkyujo, priority 1987, dated 1992)
Read-outs that look alike come from different tables or passages of the source.

Legend:
[1] = test system: HTLV-III; test: Anti-AIDS activity, infected cell rate of MT-4 cells infected with HTLV-III at the 6th day (Example 9); type: cell-based; conditions: for Infected cell (%): 6th day, control without test substance 100%
Method: (§1) To MT-4 cells (30×10^4 /ml) cultured in RPMI-1640 medium containing 10% bovine serum, was inoculated HTLV-III, and the suspension was incubated at 37° C. for 1 hour to cause the adsorption of the virus. The cell:virus ratio was 500:1. The cells were then washed, and cultured with or without various doses of the test substances (same as those of Example 1) at 37° C. under 5% CO2 for 3 days, after which cell growth, viability, and percentage of infected cells were recorded. The infected cells were distinguished from the uninfected cells by an indirect immuno-fluorescence method. Thus, the cultured cells were fixed with cold methanol on a slide glass, reacted with antibody to the HTLV-III-specific antigens, and further with the secondary antibody (having a fluororescent label). The results are shown in FIGS. 9-29, wherein, .gradient., .increment. and .quadrature. show the controls without virus, and show the infection experiments with HTLV-III. The cell growth is indicated in number of cells, the viability (%) in number of viable cells ×100/number of total cells, and the infected cell rate (%) in number of fluorescent-positive cells x 100/number of total cells.
In order to examine the correlation between the anti-AIDS virus activity and the molecular structure (especially, molecular weight and S-content or number of sulfate group in this case) of various test substances including those used in Examples 1-7, the anti-AIDS activities were evaluated for the various naturally occurring polysaccharides, polysaccharides having a sulfate group, mucopolysaccharides, mucopolysaccharide sulfate, and mucopolysaccharide polysulfate. Further, similar experiments were carried out with various other sulfates which were synthetically obtained. The experimental procedures employed are identical to that in the preceding experiments. The cultured MT-4 cells were infected with HTLV-III and the inhibitory effects of various test substances on the infected cell rate (number of fluorescent cell×100/ total cell, %) were determined at the 6th day.

[2] = test system: HTLV-III; test: Anti-AIDS virus activity, MT-4 cells infected with HTLV-III, 3 days (Examples 3, 6, 7); type: cell-based; conditions: increasing dose
Method: as §1
Test substances were assayed for the anti-AIDS virus activity in the same manner as in Example 3 using cell culture. […]
The anti-AIDS virus activity of heparin was evaluated in the same manner as in Example 3. […]

[3] = test system: DNA polymerase of phytohemagglutinin stimulated human lymphocytes; conditions: Cancer Research, 38, 2401 2407; cited from earlier work
[4] = test system: reverse transciptase of simian sarcoma virus; conditions: Cancer Research, 38, 2401 2407; cited from earlier work
[5] = test system: mice; conditions: cited from earlier work
[6] = test system: MT-4 cells; test: Cytotoxicity, MT-4 cells cultured without virus (Examples 4 and 8); type: cell-based, human
Description: The cell:virus ratio was 500:1. […] The infected cells were distinguished from the uninfected cells by an indirect immuno-fluorescence method. Thus, the cultured cells were fixed with cold methanol on a slide glass, reacted with antibody to the HTLV-III-specific antigens, and further with the secondary antibody (having a fluororescent label). […] The cell growth is indicated in number of cells, the viability (%) in number of viable cells ×100/number of total cells, and the infected cell rate (%) in number of fluorescent-positive cells x 100/number of total cells.

[7] = test system: disrupted HTLV-III virions as a crude reverse transcriptase; test: Inhibition of reverse transcriptase activity (HTLV-III), Example 2; type: biochemical; conditions: FIG. 8
[8] = test system: Friend leukemia virus (F-MuLV); test: Anti-Friend leukemia virus activity, XC-plaque assay, Procedure 2; type: cell-based; conditions: for Number of plaques per dish: control 35
Method: (§2) Anti-FMuLV activity of dextran sulfate (molecular weight: 7000-8000, S-content: 17-20%) was determined by a XC-plaque assay method. BALB3T3 cells were cultured in adhesive form in a 35 mm-dish at 5×10^4 cells/dish (2 ml). After removing the culture medium, a fresh medium with or without indicated concentrations of the test substance (1 ml each) and 0.2 ml of the virus preparation were charged, and the cells were cultured overnight. On the following day, the culture media were replaced with those (2 ml) containing or not containing the above substances, the incubation was continued for three additional days to progress the infection and replication of the virus. After the removal of the medium, the further progression of viral replication was stopped by UV irradiation. To this dish, the suspension of XC-cells (2 ml) was added and cultured for three days and the plaque formation produced by the virus particle induced cell-fusion, was observed.
Procedure 1 was repeated except that after adsorption of the virus in the medium without DS, the non-adsorbed viruses were removed and the culture was carried out in the medium (2 ml) containing or not containing DS.

[9] = test system: Friend leukemia virus (F-MuLV); test: Anti-Friend leukemia virus activity, XC-plaque assay, Procedure 1; type: cell-based; conditions: for Number of plaques per dish: control 168
Method: as §2

## Heparin
[1]; 10 μg/ml
  Infected cell (%): 41%
[1]; 100 μg/ml
  Infected cell (%): 1%
[1]; Example 9
  anti-AIDS virus activity, in words: particularly strong
[2]
  cell growth (number of cells) and viability of MT-4 cells infected with HTLV-III: the number of cells and viability were maintained to that of control
  infected cell rate (%) of MT-4 cells infected with HTLV-III, in words: less susceptible to the viral infection
[3]
  inhibition of DNA polymerase of phytohemagglutinin stimulated human lymphocytes in vitro: inhibit
[4]
  inhibition of reverse transciptase of simian sarcoma virus in vitro: inhibit
[5]; intravenously
  acute toxicity (LD50): 1,500-2,000 mg/kg
[6]
  cytotoxicity to MT-4 cells, in words: little cytotoxicity

## dextran sulfate [Dextran sulfate 7,000-8,000]
[7]
  inhibitory effect against the reverse transcriptase derived from HTLV-III: has an inhibitory effect
[1]; 10 μg/ml
  Infected cell (%): 1%
[1]; 100 μg/ml
  Infected cell (%): 0%
[8]; Procedure 2, 0.01 μg/ml
  Inhibition (%): 6%
  Number of plaques per dish: 33 per dish
[8]; Procedure 2, 0.1 μg/ml
  Inhibition (%): 45%
  Number of plaques per dish: 19 per dish
[8]; Procedure 2, 1 μg/ml
  Number of plaques per dish: 14 per dish
[8]; Procedure 2, 10 μg/ml
  Inhibition (%): 52%
  Number of plaques per dish: 17 per dish
[8]; Procedure 2, 100 μg/ml
  Inhibition (%): 54%
  Number of plaques per dish: 16 per dish
[8]; Procedure 2, 500 μg/ml
  Number of plaques per dish: 0 per dish
[9]; Procedure 1, 1 μg/ml
  Inhibition (%): 92%
  Number of plaques per dish: 14 per dish
[9]; Procedure 1, 5 μg/ml
  Inhibition (%): 93%
  Number of plaques per dish: 12 per dish
[9]; Procedure 1, 10 μg/ml
  Inhibition (%): 93%
  Number of plaques per dish: 11 per dish
[9]; Procedure 1, 50 μg/ml
  Inhibition (%): 92%
  Number of plaques per dish: 13 per dish
[9]; Procedure 1, 100 μg/ml
  Inhibition (%): 96%
  Number of plaques per dish: 6 per dish
[9]; Procedure 1, 1000 μg/ml
  Inhibition (%): 100%
[9]; Procedure 1, concentrations of 1-100 μg/ml
  inhibition of the formation of plaque: ≥ 90%
[5]; intravenously
  acute toxicity (LD50): 4,500 mg/kg
[5]; orally
  acute toxicity (LD50): 21,000 mg/kg
[6]; 1 μg/ml, without virus, 0 μg/ml gives 87
  Viability: 90%
